Km and IC50 data for three compounds are collected here from article PMC5506657, “Improvement in phosphate acquisition and utilization by a secretory purple acid phosphatase (OsPAP21b) in rice” (Plant Biotechnology Journal, 2017).

Assay [1] relates to OsPAP21b. The assay is described as follows: released Pi by vanadomolybdate; Lineweaver-Burk. The format is biochemical, Oryza sativa. The following applies: 5 mM MgCl2, 50 mM sodium acetate pH 5.0, 37 °C; 0.1-100 mM substrate.
Assay [2] has as its system OsPAP21b. The following applies: 10 mM pNPP; 0 to 25 mM NaH2PO4; 5 mM MgCl2, 50 mM sodium acetate pH 5.0, 37 °C; reaction product as inhibitor.

Usually Km stands for the substrate concentration at which the rate is half of its maximum. Consider `Nc1ncnc2c1ncn2[C@@H]1O[C@H](COP(=O)(O)OP(=O)(O)O)[C@@H](O)[C@H]1O` [ADP], for which, in the assay on OsPAP21b [1], the Km was 77 ± 4 µM. As for `O=[N+]([O-])c1ccc(OP(=O)(O)O)cc1` [pNPP], the Km in the assay on OsPAP21b [1] was determined as 90 ± 10 µM. Usually IC50 stands for the concentration at which inhibition is half-maximal. In the assay with OsPAP21b [2], `O=P(O)(O)O` [Pi] registered an IC50 of 5.09 ± 1.34 mM.
